Common to all, as to assay: NCI tumour cell line growth inhibition, 48 h
Experiment [1] has as its system 786-0 renal.
Experiment [2] relates to ACHN renal.
The test system of experiment [3] is CCRF-CEM leukemia.
Experiment [4] has as its system MALME-3M melanoma.
Experiment [5] concerns NCI-H460 lung.
The test system of experiment [6] is OVCAR-3 ovarian.
Experiment [7] relates to OVCAR-4 ovarian.
Experiment [8] has as its system RXF 393 renal.
In experiment [9] the test system is SW-620 colon.
Experiment [10] deals with TK-10 renal.
Experiment [11] relates to UO-31 renal.
Experiment [12] deals with M14 melanoma.
For experiment [13], the system named is SF-539 CNS.
Experiment [14] deals with SK-MEL-2 melanoma.
Experiment [15] concerns HOP-92 NSCLC.

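Where inhibition never reached the appropriate level, the endpoint shown equals the highest concentration tested. Otherwise, values were interpolated linearly from a five-concentration, 48-hour dose response in 96-well plates. At the TGI there is no net growth.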

On to `Cc1ccc([N+]2=NC(c3ccc([N+](=O)[O-])cc3)=NN(c3ccccc3)C2)cc1`, for which the TGI in experiment [1], in [2], in [3], in [4], in [5] and in [6] was over 100 µM each time. Moreover, the TGI in [7] was 49 µM; in experiment [8], over 100 µM; in [9] it was over 100 µM; in [10], over 100 µM; in experiment [11] it was over 100 µM.
Take `O=C1C[C@@H]2[C@@H](C=CC23CC3)N1O`: the TGI in experiment [1], in experiment [3], in [12], in experiment [4], in experiment [5] and in experiment [7] was over 100 µM in each case. Also, the TGI in experiment [8], in experiment [13], in experiment [14], in [9], in [10] and in [11] was over 100 µM throughout.
As for `COc1cc(C(=O)O)cc2c1[nH]c1ccccc12`, the TGI in experiment [1], in experiment [2], in experiment [3], in experiment [15], in experiment [12] and in experiment [4] was over 25 µM in each case. Besides, the TGI in experiment [5], in [6], in [7], in [13], in [14] and in [9] was over 25 µM each time. The TGI in experiment [10] and in [11] was over 25 µM in each case.
`CN(C)CCNC(=O)c1ccccc1Nc1c(Cl)cccc1Cl`: the TGI in [1] was 18.9 µM; in experiment [2] it was 21 µM; in experiment [3] it was 30.4 µM; in experiment [12], 31 µM; in experiment [7], 29.7 µM; in experiment [8], 10.8 µM. For the same molecule, the TGI in [13] came out at 26.7 µM; in [9], 30.2 µM; in experiment [10] it was 20.7 µM; in [11], 17.2 µM.
Turning to `CC1(OCc2ccccc2)C(=O)N2C1N(C(=O)OCc1ccccc1)CC2(C)C` (configuration not stated), the TGI in experiment [1], in [2], in experiment [3], in experiment [12], in [4] and in experiment [5] was over 100 µM in each case. Moreover, the TGI in experiment [6], in experiment [7], in experiment [8], in experiment [13], in experiment [14] and in experiment [9] was over 100 µM throughout. The TGI in [10] and in [11] was over 100 µM throughout.
For the molecule `CC(C)NC1CCCCC2c3cc(F)ccc3[C@]12O` (some centres not stated), the TGI in [1], in experiment [2], in [3], in experiment [12], in [4] and in [5] was over 100 µM in each case. Also, the TGI in experiment [6], in [7], in [8], in experiment [13], in experiment [14] and in experiment [9] was over 100 µM throughout. Further, the TGI in experiment [10] and in experiment [11] was over 100 µM throughout.
Regarding `COc1ccc2c(c1)CC[C@@H]1C2CC[C@]2(C)C(=N\O)/C(=N/O)CC12` (some centres not stated), the TGI is 31.8 µM in experiment [1]; 33.6 µM in [2]; 29.9 µM in experiment [3]; 30.6 µM in experiment [15]; 32.9 µM in experiment [12]; 32.5 µM in experiment [4]. Besides, the TGI stood at 12.5 µM in experiment [5]; 26.8 µM in experiment [6]; 35.1 µM in experiment [13]; 26.9 µM in experiment [14]; 40.2 µM in experiment [9]; 41.2 µM in experiment [10]. In addition, the TGI in experiment [11] is 26.5 µM.
With `CC(=O)CC(=O)ON(C)C(C)=O`, the TGI in [1], in [2], in experiment [3], in experiment [12], in experiment [4] and in experiment [5] was over 100 µM in each case. For the same molecule, the TGI was over 100 µM in experiment [6]; 89.1 µM in experiment [7]; over 100 µM in experiment [8]; over 100 µM in experiment [13]; over 100 µM in [9]; over 100 µM in [10]. In experiment [11], this molecule yielded a TGI of over 100 µM.
As to `CC(/C=C/c1ccccc1)=N\N=C(C)\C=C\c1ccccc1`, the TGI in [1], in experiment [2], in [3], in [12], in [4] and in experiment [5] was over 100 µM in each case. Further, the TGI in experiment [6], in experiment [7], in experiment [14], in experiment [9] and in [10] was over 100 µM throughout.

Values taken from PubChem BioAssay (NCI).
